Measured values: patent US11696928B2, “Compounds and use thereof in the expansion of stem cells and/or progenitor cells” (UNIVERSITE DE MONTREAL, priority 2017, dated 2023)

Tests used:
AhR = biological target: T1, AhR (Homo sapiens, UniProt P35869); experiment: Inhibition of AhR-mediated gene transcription (HEK-XRE 11.1 luciferase reporter, MeBIO induction); assay type: cell-based; settings: HEK-XRE 11.1 cells, MeBIO 0.1 nM, luminescence after 24 hours; Table 1
T1 construct: One of the resultant clones was named HEK-XRE 11.1, and used in the reporter gene assays; endogenous in cells; host or cells: HEK-XRE 11.1 (HEK cells stably carrying the AhR-responsive luciferase reporter X4-4.27 and phRL-CMV)
T1 sequence (P35869 11-848): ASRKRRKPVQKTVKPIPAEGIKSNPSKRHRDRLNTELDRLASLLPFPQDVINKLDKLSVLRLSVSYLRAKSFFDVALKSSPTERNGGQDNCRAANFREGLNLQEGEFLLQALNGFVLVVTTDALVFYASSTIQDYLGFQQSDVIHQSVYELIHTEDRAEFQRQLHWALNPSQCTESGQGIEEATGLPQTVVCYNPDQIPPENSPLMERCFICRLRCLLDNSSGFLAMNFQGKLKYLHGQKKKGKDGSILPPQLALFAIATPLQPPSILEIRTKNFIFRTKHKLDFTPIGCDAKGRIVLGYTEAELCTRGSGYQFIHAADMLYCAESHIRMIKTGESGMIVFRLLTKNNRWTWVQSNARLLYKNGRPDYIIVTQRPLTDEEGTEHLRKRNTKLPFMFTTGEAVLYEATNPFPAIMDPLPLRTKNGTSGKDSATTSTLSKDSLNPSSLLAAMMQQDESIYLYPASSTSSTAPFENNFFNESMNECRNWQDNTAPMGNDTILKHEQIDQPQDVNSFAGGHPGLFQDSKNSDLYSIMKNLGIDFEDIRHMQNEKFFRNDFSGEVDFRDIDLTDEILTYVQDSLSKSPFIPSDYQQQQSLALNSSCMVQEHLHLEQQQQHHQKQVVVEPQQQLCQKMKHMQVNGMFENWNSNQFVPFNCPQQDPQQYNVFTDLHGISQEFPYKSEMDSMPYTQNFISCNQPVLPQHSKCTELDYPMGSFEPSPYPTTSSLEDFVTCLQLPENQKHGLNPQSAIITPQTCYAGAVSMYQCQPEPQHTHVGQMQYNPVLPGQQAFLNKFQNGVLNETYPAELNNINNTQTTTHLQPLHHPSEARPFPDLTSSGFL
Method: HEK cells line was transfected with an AhR-responsive firefly luciferase reporter gene X4-4.27 and the stable transfectants generated were again transfected with phRL-CMV (a Renilla luciferase expression vector; Promega) along with pBAsi-hU6 Pur DNA (a plasmid carrying the puromycin-resistant gene; TaKaRa, Shiga, Japan), and maintained in the presence of both hygromycin B and puromycin (2 mg/mL). One of the resultant clones was named HEK-XRE 11.1, and used in the reporter gene assays.
HEK-XRE 11.1 cells were plated in 384-well plates at a density of 25,000 cells in 50 uL volume per well. The induction of ARh pathway was done by addition of MeBIO at 0.1 nM concentration. ARh antagonist compounds were then added to seeded cells in serial dilutions (8 dilutions, 1:[…] down to 5 nM) in duplicate wells. Renilla expression was not used as internal control. On each plate, Compound 1001 and SR1 were added as dose control (8 dilutions, 1:3, 5 mM down to 2.5 nM for SR1 and 2 mM down to 1 nM for compound 1001). Luminescence activity was evaluated after 24 hours culture using Lumi-384-CellTiterGlo-Corning protocol. Dose-response curves were generated using nonlinear regression in Excel.

[1] = tested on: Human CD34+ cord blood (CB) cells; experiment: CD34+ activity assessment (7-day expansion of pre-expanded CD34+ cells, flow cytometry); assay type: cell-based; settings: concentration at which compound/vehicle ratio of CD34+ cell number is >= 1.5; 7 days, with 35 nM UM0128171; Table 1
Method: Human CD34+ cord blood (CB) cells were isolated from fresh units using RosetteSep™ 0034 pre-enrichment cocktail followed by CD34 positive selection using EasySep Kit™ (StemCell Technologies). The cells were then pre-expanded in bulk, by culturing at 37° C. for 6 days in HSC expansion media consisting of StemSpan ACF (StemCell Technologies) supplemented with 100 ng/mL Stem Cell Factor (SCF, Shenandoah), 100 ng/mL FMS-like Tyrosine Kinase 3 Ligand (FLT3L, Shenandoah), 50 ng/mL Thrombopoietin (TPO, Shenandoah), 2 mM GlutaMAX™ (Invitrogen), 10 μg/mL low density lipoproteins (LDL, StemCell Technologies), 10 μg/mL Ciprofloxacin and 35 nM UM0128171. […] Following the pre-expansion, cells were harvested, aliquoted and frozen until use.
For each activity assessment, CD34+ pre-expanded cells (approximately 2000 per well in a 384-well plate) were cultured in HSC expansion media, in the presence of 35 nM UM0128171. Compounds were serially diluted (1/2) in DMSO (10 dilutions per compound) and added to the cells in order to achieve a 1/1000 final dilution. StemRegenin1 (SR1) and/or Compound 1001 were included in all experiments as controls to monitor assay performance. The plate was incubated at 37° C. for 7 days in static conditions (i.e. no shaking and no addition of media). Flow cytometry analysis was performed at the end of the 7-day expansion. Cells were stained with PE-labeled anti-human CD45RA (BD Biosciences) and APC-labeled anti-human CD34 (BD Biosciences) and analyzed using Intellicyt IQue cytometer equipped with ForeCyt software. Gates were drawn around the populations of interest to obtain cell numbers and relative proportions. The EC1.5 value, which is the concentration at which the compound/vehicle ratio is greater or equal to 1.5, was calculated by plotting the CD34+ cell number against concentrations (log-scale) in a 4-PL curve and fitting the curve using IDBS XLfit (set model 251) in Microsoft Excel.

SMILES | IC50 (AhR) | EC1.5 [1]
Nc1c(C(=O)Nc2cccc3cnccc23)sc2ncc(C(F)(F)F)cc12 [Compound 1039] | 50 to 500 nM | >5000 nM
Nc1c(C(=O)Nc2cccc3ncccc23)sc2ncc(C(F)(F)F)cc12 [Compound 1040] | 50 to 500 nM | >5000 nM
Nc1c(C(=O)Nc2ccc3ncccc3c2)sc2ncc(C(F)(F)F)cc12 [Compound 1041] | 50 to 500 nM | 1000 to 5000 nM
Nc1c(C(=O)Nc2cnc3ccccc3c2)sc2ncc(C(F)(F)F)cc12 [Compound 1042] | > 500 nM | 1000 to 5000 nM
Nc1c(C(=O)Nc2ccnc3ccccc23)sc2ncc(C(F)(F)F)cc12 [Compound 1043] | > 500 nM | >5000 nM
CCOC(=O)c1cnc2sc(C(=O)Nc3ccccc3)c(N)c2c1 [Compound 1044] | 50 to 500 nM | >5000 nM
Nc1c(C(=O)Nc2ccc(Cl)cc2)sc2ncc(C(F)(F)F)cc12 [Compound 1045] | < 50 nM | <100 nM
COCCc1ccc(NC(=O)c2sc3ncc(C(F)(F)F)cc3c2N)cc1 [Compound 1046] | 50 to 500 nM | >5000 nM
Cc1ccc(NC(=O)c2sc3ncc(C(F)(F)F)cc3c2N)cc1 [Compound 1047] | < 50 nM | 100 to 1000 nM
COc1ccc(NC(=O)c2sc3ncc(C(F)(F)F)cc3c2N)cc1 [Compound 1048] | < 50 nM | <100 nM
Nc1c(C(=O)Nc2ccc(Cl)cc2)sc2cnc(C(F)(F)F)cc12 [Compound 1051] | 50 to 500 nM | 1000 to 5000 nM
Cc1ccc(NC(=O)c2sc3cnc(C(F)(F)F)cc3c2N)cc1 [Compound 1052] | 50 to 500 nM | 1000 to 5000 nM
Nc1c(C(=O)Nc2ccc(-c3ccncc3)cc2)sc2ncc(C(F)(F)F)cc12 [Compound 1056] | 50 to 500 nM | >5000 nM
Nc1c(C(=O)Nc2cccc(-c3cccnc3)c2)sc2ncc(C(F)(F)F)cc12 [Compound 1057] | < 50 nM | 1000 to 5000 nM
Nc1c(C(=O)Nc2cccc(-c3ccncc3)c2)sc2ncc(C(F)(F)F)cc12 [Compound 1058] | < 50 nM | 100 to 1000 nM
Nc1c(C(=O)Nc2cccc(-c3ccccc3)c2)sc2ncc(C(F)(F)F)cc12 [Compound 1059] | 50 to 500 nM | 1000 to 5000 nM
Nc1c(C(=O)Nc2ccc(C(F)(F)F)cc2)sc2ncc(C(F)(F)F)cc12 [Compound 1061] | < 50 nM | <100 nM
Cc1cnc2sc(C(=O)Nc3ccc(Br)cc3)c(N)c2c1 [Compound 1062] | < 50 nM | <100 nM
Cc1cnc2sc(C(=O)Nc3ccncc3)c(N)c2c1 [Compound 1063] | 50 to 500 nM | >5000 nM
Nc1c(C(=O)Nc2ccc(Br)cc2)sc2ccc(C(F)(F)F)cc12 [Compound 1064] | 50 to 500 nM | 100 to 1000 nM
Cc1ccc(NC(=O)c2sc3ccc(C(F)(F)F)cc3c2N)cc1 [Compound 1065] | 50 to 500 nM | 100 to 1000 nM
Nc1c(C(=O)Nc2ccc(Cl)cc2)sc2ccc(C(F)(F)F)cc12 [Compound 1066] | < 50 nM | 100 to 1000 nM

SMILES | IC50 (AhR) | EC1.5 [1]
Nc1c(C(=O)Nc2cccnc2)sc2ccc(C(F)(F)F)cc12 [Compound 1067] | < 50 nM | 1000 to 5000 nM
Cc1cnc2sc(C(=O)Nc3ccc(Cl)cc3)c(N)c2c1 [Compound 1068] | < 50 nM | <100 nM
Cc1ccc(NC(=O)c2sc3ncc(C)cc3c2N)cc1 [Compound 1069] | < 50 nM | 100 to 1000 nM
Cc1ccc(NC(=O)c2sc3ncc(C(F)(F)F)cc3c2N)cn1 [Compound 1070] | 50 to 500 nM | >5000 nM
COc1ccc(NC(=O)c2sc3ncc(C(F)(F)F)cc3c2N)cn1 [Compound 1071] | < 50 nM | 100 to 1000 nM
Cc1ccc2sc(C(=O)Nc3ccccc3)c(N)c2n1 [Compound 1072] | 50 to 500 nM | >5000 nM
Cc1ccc2sc(C(=O)Nc3ccc(Cl)cc3)c(N)c2n1 [Compound 1073] | 50 to 500 nM | >5000 nM
Nc1c(C(=O)Nc2ccc(F)c(Cl)c2)sc2ncc(C(F)(F)F)cc12 [Compound 1074] | < 50 nM | 100 to 1000 nM
Nc1c(C(=O)Nc2ccc(F)c(F)c2)sc2ncc(C(F)(F)F)cc12 [Compound 1075] | < 50 nM | 100 to 1000 nM
Cc1cc(NC(=O)c2sc3ncc(C(F)(F)F)cc3c2N)ccc1F [Compound 1076] | 50 to 500 nM | 100 to 1000 nM
Nc1c(C(=O)Nc2cccc(F)c2)sc2ncc(C(F)(F)F)cc12 [Compound 1077] | < 50 nM | 100 to 1000 nM
Cc1ccc(NC(=O)c2sc3ncc(C(F)(F)F)cc3c2N)cc1F [Compound 1078] | 50 to 500 nM | 1000 to 5000 nM
Nc1c(C(=O)Nc2cc(F)cc(F)c2)sc2ncc(C(F)(F)F)cc12 [Compound 1079] | 50 to 500 nM | 1000 to 5000 nM
COc1cccc(NC(=O)c2sc3cnc(C(F)(F)F)cc3c2N)c1 [Compound 1080] | < 50 nM | 100 to 1000 nM
COc1cccc(NC(=O)c2sc3nc4c(cc3c2N)CCC4)c1 [Compound 1081] | < 50 nM | <100 nM
Nc1c(C(=O)Nc2ccc(Cl)cc2)sc2nc3c(cc12)CCC3 [Compound 1082] | < 50 nM | <100 nM
COc1ccc(NC(=O)c2sc3ccc(C(F)(F)F)cc3c2N)cc1 [Compound 1083] | 50 to 500 nM | <100 nM
Nc1c(C(=O)Nc2ccc(OC(F)(F)F)cc2)sc2ncc(C(F)(F)F)cc12 [Compound 1084] | < 50 nM | <100 nM
COc1cccc(NC(=O)c2sc3ncc(C(F)(F)F)cc3c2N)c1 [Compound 1085] | 50 to 500 nM | 100 to 1000 nM
Nc1c(C(=O)Nc2ccc(OC(F)F)cc2)sc2ncc(C(F)(F)F)cc12 [Compound 1086] | < 50 nM | 100 to 1000 nM
COc1ccc(NC(=O)c2sc3ncc(C(F)(F)F)cc3c2N)cc1Cl [Compound 1087] | < 50 nM | <100 nM
Nc1c(C(=O)Nc2ccc(F)cc2)sc2cnc(C(F)(F)F)cc12 [Compound 1088] | < 50 nM | >5000 nM
